Structures can show the parent of a compound that is named as a salt.

The nature of this series: Dissolution test, Japanese Pharmacopoeia 17th Edition, paddle method, water. The series is classed as physicochemical. The following applies: for dissolution rate of the mixture with an excipient after compression molding versus the mixture not compression molded: drug mixed with an excipient, compression molded in the same manner as in this embodiment. The method, then:
With respect to the granular compositions of Examples 1 to 8, and Comparative Examples 1 to 8 prepared as described above, a dissolution test was performed. The dissolution test was performed according to the dissolution test method of the Japanese Pharmacopoeia, Seventeenth Edition. By using a dissolution testing device (NTR-6000 series, manufactured by Toyama Sangyo Co., Ltd.), the dissolution test was performed by a paddle method using water as a dissolution test liquid. At this time, the volume of the dissolution test liquid was set to 900 mL, the temperature of the dissolution test liquid was set to 37 ±0.5° C., and the paddle rotation rate was set to 50 rpm. With respect to the respective Examples and the respective Comparative Examples, the total amount was added to the dissolution test liquid, and the dissolution test liquid was sampled at 5, 10, 15, 30, 45, 60, 90, and 120 minutes after the start of the test, and filtered through a 0.45-μm filter (manufactured by Whatman GE Healthcare Biosciences), and then, the dissolution rate of Compound (I) was measured using high performance liquid chromatography.
FIGS. 5 to 9 show the time course of the dissolution rate of Compound (I) in the granular compositions of Examples 1 to 5, respectively, and also show the time course of the dissolution rate of Compound (I) in Comparative Examples 1 to 5, respectively. […] In FIGS. 5 to 11, the vertical axis represents the dissolution rate (unit: %) and the horizontal axis represents a time (unit: min). The solid lines E1 to E8 represent the cases of Examples 1 to 8, respectively, and the broken lines C1 to C8 represent the cases of Comparative Examples 1 to 8, respectively.

Turning to `CC(C)N(CCCCOCC(=O)NS(C)(=O)=O)c1cnc(-c2ccccc2)c(-c2ccccc2)n1` [Compound (I), 2-{4-[N-(5,6-diphenylpyradin-2-yl)-N-isopropylamino]butyloxy}-N-(methylsulfonyl)acetamide], the “dissolution property of Compound (I)” value (in a granule obtained by a fluidized bed granulation method) is reported as “low”. With `CC(=O)Nc1ccc(O)cc1` [acetaminophen], the “dissolution rate of the mixture with an excipient after compression molding versus the mixture not compression molded” value is listed as “substantially equivalent”. Still for that read-out and setting: under `CCN(CC)C(=O)Nc1ccc(OCC(O)CNC(C)(C)C)c(C(C)=O)c1` (stereo not shown) [celiprolol hydrochloride] stands “substantially equivalent”; under `COc1ccc2c(c1)c(CC(=O)O)c(C)n2C(=O)c1ccc(Cl)cc1` [indomethacin], “substantially equivalent”.
